Source: patent US20260263468A1 (Fundación Instituto de Investigación Sanitaria Fundación …, priority 2023, published 2026)

Legend:
C2C12 [1] = assay: Western blot of PKA isoforms, pCREB, EPAC1/2; type: cell-based; conditions: 1 μM
Experimental: (§1) Cells were lysed with RIPA buffer and protein concentration was determined by BCA. […] Variations in intensity were expressed as % of basal (day 0) and expressed as mean±SEM. All results were calculated as a percentage of non-differentiated controls to minimize the intrinsic variation among different experiments.
To study the CAMP signaling pathway, we analyzed the expression of PKA on its three catalytic isoforms PKAα, PKAβ and PKAγ as well as EPAC1/2. […] Tenofovir reduced its phosphorylation (154±9% tenofovir vs 247±30% control at day 4, p<0.05, FIG. 3B).

C2C12 cells = assay: Cell proliferation assay (AlamarBlue); type: cell-based; conditions: 10^−9-10^−5 M, 24 and 48 hours
Experimental: C2C12 cells (American Type Culture Collection, ATCC, Manassas, VA, USA) were cultured in DMEM supplemented with 10% FBS and 1% penicillin-streptomycin. To induce myogenic differentiation, 70% confluence C2C12 cells were culture in DMEM containing 2% HS (horse serum). Cells were maintained in a humidified chamber at 37° C., in 95% air and 5% CO2. Media was replaced with fresh every 48h.
C2C12 cells were plated in 96-well plates (Corning, Cultek, Spain) (12.500 cells/well). Cell proliferation was measured using AlamarBlue assay according to the manufacturer's instructions, at 24 and 48 h of myogenic differentiation.

[2] = test system: K/B×N serum transfer-induced arthritis; assay: Serum CRP ELISA and serum cytokine array; type: in vivo, C57BL/6J mice; conditions: arthritic mice + dipyridamole
Experimental: For this purpose, they performed an array of protein expression of pro- and anti-inflammatory cytokines and chemokines in serum by using the Mouse Cytokine Array Q1 (RayBiotech, EEUU) which, simultaneously, detects 20 cytokines. The cytokines concentration was measured by fluorescence using GenePix following manufacture protocol for serum samples.
CRP concentration was measured using the colorimetric Mouse CRP ELISA kit following manufacture protocol for serum samples (Crystal Chem, USA). Absorbance was measured at 450 nm using a microplate reader Tecan Spark 20M.
Serum CRP were determined by Mouse CRP ELISA Kit (Crystal Chem, #80634), according to the instructions of the manufacturer. Absorbance was measured at 450 nm using a microplate reader Tecan Spark 20M.
The cytokines concentration was measured by fluorescence using GenePix 4000B following manufacture protocol for serum and frozen samples. Serum samples were used at 2-fold sample dilution. Frozen gastronemius were crushed using a mortar and a pestle cooled with liquid nitrogen. Next, gastronemius were homogenized in a sonicator and the protein isolated in the supernatant quantified with BCA assay. We used 100 μL (1 mg/ml) of total gastronemius protein for cytokine and chemokine array assay.

[3] = test system: K/B×N serum transfer-induced arthritis; assay: Resolved inflammation model (30 days): tissues weight, inflammation, body weight; type: in vivo, C57BL/6J mice; conditions: for BAT, Absolute weight / Bodyweight, Absolute weight / EDL, Absolute weight / Gastronemius, Absolute weight / Tibialis, Absolute weight / WAT, Absolute weight: resolved model
Experimental: Animals were sacrificed 30 days after serum transfer.
Mice were weighted weekly. Development of arthritis was assessed daily, and the severity of arthritis was assessed in each paw on a 4-point scale defined as follows: 0=normal appearance, 1=localized edema/erythema over one surface of the paw, 2=edema/erythema involving more than one surface of the paw, and 3-4=marked edema/erythema involving the whole paw. Scores of all 4 paws were added for a composite score. All motor activity tests were performed prior to serum inoculation and at the highest point of inflammation. Mice were euthanized on day 16 for acute inflammation model or 30 days for Inflammation resolved model. A representative photo of body structure and muscle of pawn were taken on this day. Gastronemius was collected for protein and RNA extraction. Tibialis and soleus were included for freeze histology following the indications of H. Meng (see references in ref. 44). Bones were prepared for micro-computed tomography (microCT) and histology. Blood was drawn and serum was isolated for measurement of inflammatory cytokines and C-reactive protein (CPR).
Body weight and muscle loss continue happening until day 30 when inflammation is resolved (FIG. 15), and dipy treatment continues reverting inflammation effects (FIG. 15A).

C2C12 myoblast cell line = assay: Western blot of C2C12 under pro-inflammatory conditions with/without dipyridamole
Experimental: Western blot was performed as described above.
Protein concentration was determined by BCA. 4 μg for cells and 40-50 μg for tissue samples of protein was subjected to 6-15% SDS-PAGE and transferred to a nitrocellulose membrane. Membranes were blocked with 3% BSA in Tris-buffered saline containing 0.1% Tween-20 (TBS-T). After that, the membranes were incubated overnight at 4° C. with the primary antibodies for A2A, A2B, MHC (Thermo Fisher Scientific, Waltham, USA), AMPK, pAMPK (Thr172), p21, p16 (Cell signaling, Danvers, EEUU) (1:1000 each) and Pax-7 (Developmental Studies Hybridoma Bank, Houston, EEUU) (1:500 each).

C2C12 [4] = assay: Nucleotide concentration by HPLC during C2C12 differentiation; type: cell-based
Experimental: Supernatant and cell lysate are collected every day. Cells were lysated with a homemade buffer (1 mM phenylmethylsulfonyl fluoride, 1 mM protease inhibitor cocktail, 1 mM sodium orthovanadate, 1 mM sodium fluoride and 1 mM β-glicerophospate) and supernatant was used directly. A heat shock step was done at 98° C. for 2 min, and to avoid adenosine degradation 1 μM EHNA was added at the time of heating. All samples were centrifuged at 13000 g for 10 min at 4° C. and supernatants were collected and stored at −80° C. until use. Inosine, adenosine, AMP, ADP and ATP concentrations were determined with high performance liquid chromatography (HPLC) using a liquid chromatograph with a reversed phase column (Agilent 1100 Series Liquid Chromatography) and an UV detector set at 254 nm. Buffer composed of 0.1 mol/L KH2PO4 (pH 7.5) and 18% acetonitrile was run at 1.5 ml/min for 20 min. Compounds were identified and quantified by their retention times and peak areas of known standards, calibrated by spectrophotometry. […] The results have been corrected and expressed as mean±SEM. All results were calculated as a percentage of controls without differentiation state.

C2C12 [5] = conditions: dipyridamole 1 μM ± PSB-603 1 μM
Experimental: as §1

[6] = RA mice, dipy started 7 days after serum transfer

Question: With `OCCN(CCO)c1nc(N2CCCCC2)c2nc(N(CCO)CCO)nc(N3CCCCC3)c2n1` [dipyridamole, 2,6-bis(Diethanolamino)-4,8-dipiperidinopyrimido[5,4-d]pyrimidine] as the molecule, how does the “pCREB (% of basal)” value (C2C12 [1]; day 4, control 247±30%) read?
Answer: 275±73%

Question: And the EPAC2 protein expression (C2C12 [1]; within differentiation)?
Answer: decreased

Question: And the Proliferation (C2C12 cells)?
Answer: No significant changes

Question: What about the Serum IL-9 ([2]; arthritic 4.3±1.8) of the same molecule?
Answer: 13.1 ± 2.6 pg/mL

Question: And the Serum VEGF ([2]; arthritic 90±13.1)?
Answer: 221 ± 40.3 pg/mL

Question: And the Serum IL-10 ([2]; arthritic 117.6±5.2)?
Answer: 166 ± 10 pg/mL

Question: And the “Serum CRP” value ([2]; arthritic 4098±560, sham 2861±893)?
Answer: 3543 ± 586 ng/mL

Question: And the Body weight [3, 6]?
Answer: body weight gain starting one week after first dipy dose

Question: And the Joint inflammation [3, 6]?
Answer: complete reversion of inflammation

Question: What about the “BAT, Absolute weight” value ([3]; Dipy alone) of the same molecule?
Answer: 0.15 ± 0.01 g

Question: And the “Bodyweight, Absolute weight” value ([3]; Dipy alone)?
Answer: 27 ± 0.5 g

Question: And the “EDL, Absolute weight” value ([3]; Dipy alone)?
Answer: 0.03 ± 0.01 g

Question: What about the “Gastronemius, Absolute weight” value ([3]; Dipy alone) of the same molecule?
Answer: 0.39 ± 0.03 g

Question: What about the “Tibialis, Absolute weight” value ([3]; Dipy alone) of the same molecule?
Answer: 0.16 ± 0.02 g

Question: What about the “WAT, Absolute weight” value ([3]; Dipy alone) of the same molecule?
Answer: 0.14 ± 0.06 g

Question: What about the “BAT, Absolute weight” value ([3]; RA + Dipy D 0) of the same molecule?
Answer: 0.17 ± 0.01 g

Question: And the “EDL, Absolute weight” value ([3]; RA + Dipy D 0)?
Answer: 0.03 ± 0.01 g

Question: And the “Gastronemius, Absolute weight” value ([3]; RA + Dipy D 0)?
Answer: 0.37 ± 0.02 g

Question: What about the “Tibialis, Absolute weight” value ([3]; RA + Dipy D 0) of the same molecule?
Answer: 0.11 ± 0.01 g

Question: What about the “WAT, Absolute weight” value ([3]; RA + Dipy D 0) of the same molecule?
Answer: 0.15 ± 0.08 g

Question: And the “Bodyweight, Absolute weight” value ([3]; RA + Dipy D 0 (preventive))?
Answer: 26.4 ± 1.31 g

Question: And the “BAT, Absolute weight” value ([3]; RA + Dipy D 7)?
Answer: 0.15 ± 0.01 g

Question: And the “Gastronemius, Absolute weight” value ([3]; RA + Dipy D 7)?
Answer: 0.33 ± 0.02 g

Question: What about the “Tibialis, Absolute weight” value ([3]; RA + Dipy D 7) of the same molecule?
Answer: 0.05 ± 0.01 g

Question: And the “WAT, Absolute weight” value ([3]; RA + Dipy D 7)?
Answer: 0.18 ± 0.12 g

Question: What about the “Bodyweight, Absolute weight” value ([3]; RA + Dipy D 7 (therapeutic)) of the same molecule?
Answer: 27.26 ± 1.20 g

Question: What about the “CREB expression (vs 100% basal)” value (C2C12 myoblast cell line; 24 h of differentiation) of the same molecule?
Answer: 361.5±68.8%

Question: What about the AMPK activation (C2C12 myoblast cell line; cytokine/LPS ± dipyridamole 1 μM, day 4, control 222.7±23.9%) of the same molecule?
Answer: did not increase AMPK levels

Question: And the PKAα expression (C2C12 myoblast cell line; day 4, dipyridamole combined with IL-6, IL-6 alone 107±5.8%)?
Answer: 245.3±34.3%

Question: What about the PKAα expression (C2C12 myoblast cell line; day 4, dipyridamole combined with INFγ, INFγ alone 101.7±3.7%) of the same molecule?
Answer: 245.3±34.3%

Question: And the PKAα expression (C2C12 myoblast cell line; day 4, control 213.9±21.6%)?
Answer: 245.3±34.3%

Question: What about the “Myogenesis (PAX7, MHC)” value (C2C12 myoblast cell line; dipyridamole 1 μM alone) of the same molecule?
Answer: did not modulate myogenesis

Question: What about the “Extracellular ATP” value (C2C12 [4]; 1 μM each, day 4, control 14.7±0.5) of the same molecule?
Answer: did not modify

Question: And the Intracellular adenosine (C2C12 [4]; 1 μM, day 4, control 10.87±0.73)?
Answer: 13.76 ± 1.13 nM

Question: What about the Intracellular inosine (C2C12 [4]; 1 μM, day 4, control 11.07±0.54) of the same molecule?
Answer: 14.17 ± 1.75 nM

Question: And the “Intracellular AMP” value (C2C12 [4]; 1 μM, day 4, control 12.10±0.73)?
Answer: 18.53 ± 1.13 nM

Question: And the Extracellular adenosine (C2C12 [4]; 1 μM, day 4 of differentiation, control 11.6±0.81)?
Answer: 17.33 ± 0.47 nM

Question: And the PAX7 protein expression (C2C12 [5]; 2% HS, day 1)?
Answer: 198±24%

Question: And the MHC protein expression (C2C12 [5]; day 1)?
Answer: 95±13%

Question: And the Myf5 protein expression (C2C12 [5]; day 3)?
Answer: 79.48±31%

Question: What about the PKAα protein expression (C2C12 [5]; day 4) of the same molecule?
Answer: 358±156%

Question: What about the pAMPK expression (C2C12 [5]; day 4) of the same molecule?
Answer: 284±79.8%

Question: What about the pCREB (C2C12 [5]; day 4) of the same molecule?
Answer: 399.6±119.8%
